Reference: PubChem BioAssay (NCI)
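Cultured in 96-well plates, cells were exposed to test compound for 48 hours across five concentrations. At the TGI there is no net growth.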

Tests used:
Assay in all cases: inhibition of tumour cell growth, NCI panel, 48 h
UACC-257 melanoma = test system: UACC-257 melanoma
T-47D breast = test system: T-47D breast
A549 NSCLC = test system: A549 NSCLC
SW-620 colon = test system: SW-620 colon
MDA-MB-435 = test system: MDA-MB-435
NCI-H460 lung = test system: NCI-H460 lung
OVCAR-8 ovarian = test system: OVCAR-8 ovarian
SNB-75 CNS = test system: SNB-75 CNS
SK-MEL-5 melanoma = test system: SK-MEL-5 melanoma
ACHN renal = test system: ACHN renal
CAKI-1 renal = test system: CAKI-1 renal
SF-295 CNS = test system: SF-295 CNS

N#C/C(C(=O)Nc1ccc(Cl)cc1)=C(/N)N1CCCCC1
TGI (UACC-257 melanoma): > 100 µM | TGI (T-47D breast): > 100 µM | TGI (A549 NSCLC): > 100 µM | TGI (SW-620 colon): > 100 µM | TGI (MDA-MB-435): > 100 µM | TGI (NCI-H460 lung): > 100 µM | TGI (OVCAR-8 ovarian): > 100 µM | TGI (SNB-75 CNS): 72.3 µM | TGI (SK-MEL-5 melanoma): > 100 µM | TGI (ACHN renal): > 100 µM | TGI (CAKI-1 renal): > 100 µM | TGI (SF-295 CNS): > 100 µM

COC(=O)c1c(O)ccc2c1c1c(n2Cc2ccc(Cl)cc2Cl)C(=O)c2ccccc2C1=O
TGI (UACC-257 melanoma): 30.1 µM | TGI (T-47D breast): 13.7 µM | TGI (A549 NSCLC): 19.3 µM | TGI (SW-620 colon): 32.4 µM | TGI (MDA-MB-435): 20.6 µM | TGI (NCI-H460 lung): 13 µM | TGI (OVCAR-8 ovarian): 21.4 µM | TGI (SNB-75 CNS): 32.3 µM | TGI (SK-MEL-5 melanoma): 27.1 µM | TGI (ACHN renal): 20.4 µM | TGI (CAKI-1 renal): 27.2 µM | TGI (SF-295 CNS): 31.5 µM

CCN(CC)CCNC(=O)c1cc2cc(NC(=O)c3cc4cc(NC(=O)c5cc6cc(N)ccc6[nH]5)ccc4[nH]3)ccc2[nH]1
TGI (UACC-257 melanoma): > 100 µM | TGI (T-47D breast): > 100 µM | TGI (A549 NSCLC): > 100 µM | TGI (SW-620 colon): > 100 µM | TGI (MDA-MB-435): > 100 µM | TGI (NCI-H460 lung): > 100 µM | TGI (OVCAR-8 ovarian): > 100 µM | TGI (SNB-75 CNS): > 100 µM | TGI (SK-MEL-5 melanoma): > 100 µM | TGI (ACHN renal): > 100 µM | TGI (CAKI-1 renal): > 100 µM | TGI (SF-295 CNS): > 100 µM

COc1ccc(OCc2ccc3nc(-c4ccccc4)c(Cl)nc3c2)cc1
TGI (UACC-257 melanoma): > 100 µM | TGI (T-47D breast): > 100 µM | TGI (A549 NSCLC): > 100 µM | TGI (SW-620 colon): > 100 µM | TGI (MDA-MB-435): > 100 µM | TGI (NCI-H460 lung): > 100 µM | TGI (OVCAR-8 ovarian): > 100 µM | TGI (SNB-75 CNS): > 100 µM | TGI (SK-MEL-5 melanoma): 25.8 µM | TGI (ACHN renal): > 100 µM | TGI (CAKI-1 renal): 51.4 µM | TGI (SF-295 CNS): 62.1 µM

CC(=O)CSc1c(-c2ccccc2)c(=O)n(-c2ccccc2)c(=S)n1-c1ccccc1
TGI (UACC-257 melanoma): > 100 µM | TGI (T-47D breast): > 100 µM | TGI (A549 NSCLC): > 100 µM | TGI (SW-620 colon): > 100 µM | TGI (MDA-MB-435): > 100 µM | TGI (NCI-H460 lung): > 100 µM | TGI (OVCAR-8 ovarian): > 100 µM | TGI (SNB-75 CNS): > 100 µM | TGI (SK-MEL-5 melanoma): > 100 µM | TGI (ACHN renal): > 100 µM | TGI (CAKI-1 renal): > 100 µM | TGI (SF-295 CNS): > 100 µM

CC1CC[C@@]2(OC1)OC1CC3C4CCC5C[C@@H](OC6OC(CO)C(OC7OC(CO)C(O)C(OC8OC(CO)C(O)C(OC9OC(CO)C(O)C(O)C9O)C8O)C7OC7OC(CO)C(O)C(O)C7O)C(O)C6O)[C@H](O)C[C@]5(C)C4CC[C@]3(C)C1[C@@H]2C (some centres undefined)
TGI (UACC-257 melanoma): > 80.5 µM | TGI (T-47D breast): > 80.5 µM | TGI (A549 NSCLC): > 80.5 µM | TGI (SW-620 colon): > 80.5 µM | TGI (MDA-MB-435): > 80.5 µM | TGI (NCI-H460 lung): > 80.5 µM | TGI (OVCAR-8 ovarian): > 80.5 µM | TGI (SNB-75 CNS): > 80.5 µM | TGI (SK-MEL-5 melanoma): > 80.5 µM | TGI (ACHN renal): > 80.5 µM | TGI (CAKI-1 renal): > 80.5 µM | TGI (SF-295 CNS): > 80.5 µM

Nc1ccn(C2CCC(CO)O2)c(=S)n1 (centres undefined)
TGI (UACC-257 melanoma): > 100 µM | TGI (T-47D breast): > 100 µM | TGI (A549 NSCLC): > 100 µM | TGI (SW-620 colon): > 100 µM | TGI (MDA-MB-435): > 100 µM | TGI (NCI-H460 lung): > 100 µM | TGI (OVCAR-8 ovarian): > 100 µM | TGI (SNB-75 CNS): > 100 µM | TGI (SK-MEL-5 melanoma): > 100 µM | TGI (ACHN renal): > 100 µM | TGI (CAKI-1 renal): > 100 µM | TGI (SF-295 CNS): > 100 µM
